These results are taken from ChEMBL document CHEMBL1135802, “Pyrrolo[1,3]benzothiazepine-based atypical antipsychotic agents. Synthesis, structure-activity relationship, molecular modeling, and biological studies” (J Med Chem, 2002).

Assay [1] deals with T1, D(3) dopamine receptor (Rattus norvegicus, UniProt P19020). Further details: species or system Tissue.
Description: Half-maximal inhibition of [3H]-7-OH-DPAT binding to Dopamine receptor D3 in rat tissue homogenate
Assay [2] addresses T2, D(1A) dopamine receptor (Rattus norvegicus, UniProt P18901).
Assay [3] addresses T3, 5-hydroxytryptamine receptor 2A (Rattus norvegicus, UniProt P14842). The experiment in a line: biochemical.
The target of assay [4] is T3, 5-hydroxytryptamine receptor 2A. The experiment in a line: biochemical. The class given is tissue-based, Cerebral cortex.
The target of assay [5] is T4, Adrenergic receptor alpha-1 (Rattus norvegicus, UniProt P15823+P23944+P43140).
T4 sequence (P15823 whole entry): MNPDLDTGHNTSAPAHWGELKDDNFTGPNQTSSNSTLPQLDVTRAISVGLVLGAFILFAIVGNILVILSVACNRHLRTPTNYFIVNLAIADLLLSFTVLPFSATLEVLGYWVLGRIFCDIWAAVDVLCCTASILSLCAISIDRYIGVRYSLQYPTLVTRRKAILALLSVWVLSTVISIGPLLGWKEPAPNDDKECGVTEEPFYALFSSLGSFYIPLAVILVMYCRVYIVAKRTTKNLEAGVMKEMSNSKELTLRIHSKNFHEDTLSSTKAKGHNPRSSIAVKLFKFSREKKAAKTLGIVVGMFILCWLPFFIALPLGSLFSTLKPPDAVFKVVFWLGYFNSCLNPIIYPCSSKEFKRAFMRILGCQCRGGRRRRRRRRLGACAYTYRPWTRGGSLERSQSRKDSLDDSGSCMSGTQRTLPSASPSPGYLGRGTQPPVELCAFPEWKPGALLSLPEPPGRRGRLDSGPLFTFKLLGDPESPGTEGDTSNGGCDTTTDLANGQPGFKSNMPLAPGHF
T4 sequence (P23944 whole entry): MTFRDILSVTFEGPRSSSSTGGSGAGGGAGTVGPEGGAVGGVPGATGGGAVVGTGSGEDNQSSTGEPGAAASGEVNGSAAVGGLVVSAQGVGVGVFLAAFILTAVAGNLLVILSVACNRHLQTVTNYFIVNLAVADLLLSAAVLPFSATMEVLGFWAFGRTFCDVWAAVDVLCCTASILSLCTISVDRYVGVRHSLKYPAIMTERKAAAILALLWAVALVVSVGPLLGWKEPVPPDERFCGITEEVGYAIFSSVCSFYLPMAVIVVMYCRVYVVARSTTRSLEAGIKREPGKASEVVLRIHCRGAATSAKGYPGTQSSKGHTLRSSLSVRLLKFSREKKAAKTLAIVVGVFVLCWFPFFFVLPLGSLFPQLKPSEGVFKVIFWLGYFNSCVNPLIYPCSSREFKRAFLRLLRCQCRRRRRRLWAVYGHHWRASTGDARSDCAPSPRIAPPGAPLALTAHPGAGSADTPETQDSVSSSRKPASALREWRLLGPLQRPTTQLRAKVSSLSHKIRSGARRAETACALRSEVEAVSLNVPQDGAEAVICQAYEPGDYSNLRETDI
T4 sequence (P43140 whole entry): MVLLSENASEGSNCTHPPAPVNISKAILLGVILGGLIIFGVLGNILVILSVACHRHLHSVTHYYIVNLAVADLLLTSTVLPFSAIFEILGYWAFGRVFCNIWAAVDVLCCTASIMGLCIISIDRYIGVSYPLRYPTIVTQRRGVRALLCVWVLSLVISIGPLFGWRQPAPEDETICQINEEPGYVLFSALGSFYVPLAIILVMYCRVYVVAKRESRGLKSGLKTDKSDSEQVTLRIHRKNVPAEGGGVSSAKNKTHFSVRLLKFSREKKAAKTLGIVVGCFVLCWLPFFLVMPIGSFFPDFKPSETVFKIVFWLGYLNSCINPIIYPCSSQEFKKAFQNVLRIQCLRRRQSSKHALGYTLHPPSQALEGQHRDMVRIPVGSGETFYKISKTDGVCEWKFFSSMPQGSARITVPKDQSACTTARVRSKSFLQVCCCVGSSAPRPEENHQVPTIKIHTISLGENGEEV
The class given is tissue-based, Frontal cortex.
Description: Inhibition of [3H]-prazosin binding to Alpha-1 adrenergic receptor in rat frontal cortex homogenate

Assay [6] deals with T1, D(3) dopamine receptor. Further details: species or system Tissue. This is another data set of the same source.
Description: Half-maximal inhibition of [3H]7-OH-DPAT binding to Dopamine receptor D3 in rat tissue homogenate
Assay [7] concerns the target T1, D(3) dopamine receptor. Further details: species or system Tissue. The source holds these as a separate data set.
Assay [8] addresses T5, Muscarinic acetylcholine receptor M1 (Rattus norvegicus, UniProt P08482).
T5 sequence (P08482 whole entry): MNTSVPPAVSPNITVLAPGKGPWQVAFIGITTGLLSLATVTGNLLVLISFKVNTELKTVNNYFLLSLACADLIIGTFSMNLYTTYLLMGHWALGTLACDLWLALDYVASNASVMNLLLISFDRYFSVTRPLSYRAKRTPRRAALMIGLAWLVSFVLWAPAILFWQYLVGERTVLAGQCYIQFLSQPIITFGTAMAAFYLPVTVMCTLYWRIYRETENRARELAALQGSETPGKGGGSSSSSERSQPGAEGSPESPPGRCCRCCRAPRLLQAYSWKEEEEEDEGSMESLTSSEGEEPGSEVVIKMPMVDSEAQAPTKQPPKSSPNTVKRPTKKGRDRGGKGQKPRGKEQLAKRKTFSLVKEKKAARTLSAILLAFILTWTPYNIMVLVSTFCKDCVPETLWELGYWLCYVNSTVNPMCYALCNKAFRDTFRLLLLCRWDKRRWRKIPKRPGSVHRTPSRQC
The experiment in a line: biochemical. The class given is tissue-based, Frontal cortex.
Description: Half-maximal inhibition of [3H]QNB binding to Muscarinic acetylcholine receptor M1 in rat frontal cortex homogenate

The next assay deals with Histamine H1 receptor (Rattus norvegicus, UniProt P31390). The experiment in a line: biochemical. The class given is tissue-based, Frontal cortex.
Histamine H1 receptor, sequence (P31390 whole entry): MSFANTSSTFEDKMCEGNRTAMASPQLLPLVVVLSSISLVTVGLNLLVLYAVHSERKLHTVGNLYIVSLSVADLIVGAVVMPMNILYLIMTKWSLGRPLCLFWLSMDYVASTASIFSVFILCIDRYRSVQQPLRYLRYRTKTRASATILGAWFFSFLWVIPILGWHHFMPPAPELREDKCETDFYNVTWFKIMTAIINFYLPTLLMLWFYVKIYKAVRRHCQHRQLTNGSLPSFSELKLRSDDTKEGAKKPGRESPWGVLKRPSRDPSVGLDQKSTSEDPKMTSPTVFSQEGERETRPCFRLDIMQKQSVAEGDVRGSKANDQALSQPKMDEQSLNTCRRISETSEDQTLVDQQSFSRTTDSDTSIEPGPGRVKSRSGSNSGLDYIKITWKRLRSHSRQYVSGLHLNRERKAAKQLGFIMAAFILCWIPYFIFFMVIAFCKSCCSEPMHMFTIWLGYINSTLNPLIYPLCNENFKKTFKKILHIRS
Assay [9] is filed under the species Mus musculus. The experiment in a line: animal or person. The class given is functional. The conditions noted are these: sc.
Description: Effective dose required to antagonize apomorphine-induced catalepsy in mice after administration of >100 mg/kg dose subcutaneously
For assay [10], the species on record is Mus musculus. The experiment in a line: animal or person. The class given is functional. The conditions noted are these: sc, dose 0.83 mg/kg, route subcutaneous.
Assay [11] is filed under the species Mus musculus. The experiment in a line: animal or person. The class given is functional. The conditions noted are these: sc, dose 1.5 mg/kg, route subcutaneous.
Assay [12] concerns the target T2, D(1A) dopamine receptor. The source holds these as a separate data set.

T2 sequence (P18901 whole entry): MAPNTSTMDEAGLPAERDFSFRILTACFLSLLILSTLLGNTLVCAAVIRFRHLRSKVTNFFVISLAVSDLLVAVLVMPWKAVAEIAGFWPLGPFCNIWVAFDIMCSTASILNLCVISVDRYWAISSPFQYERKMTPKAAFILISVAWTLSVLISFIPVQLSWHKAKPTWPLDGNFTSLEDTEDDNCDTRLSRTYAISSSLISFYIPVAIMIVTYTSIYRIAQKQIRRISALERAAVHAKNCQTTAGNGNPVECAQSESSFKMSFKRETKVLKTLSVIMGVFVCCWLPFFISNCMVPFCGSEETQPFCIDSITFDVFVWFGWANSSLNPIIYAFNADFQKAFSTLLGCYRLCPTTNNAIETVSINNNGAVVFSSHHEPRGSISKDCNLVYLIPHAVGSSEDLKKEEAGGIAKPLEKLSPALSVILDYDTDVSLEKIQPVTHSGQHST
T1 sequence (P19020 whole entry): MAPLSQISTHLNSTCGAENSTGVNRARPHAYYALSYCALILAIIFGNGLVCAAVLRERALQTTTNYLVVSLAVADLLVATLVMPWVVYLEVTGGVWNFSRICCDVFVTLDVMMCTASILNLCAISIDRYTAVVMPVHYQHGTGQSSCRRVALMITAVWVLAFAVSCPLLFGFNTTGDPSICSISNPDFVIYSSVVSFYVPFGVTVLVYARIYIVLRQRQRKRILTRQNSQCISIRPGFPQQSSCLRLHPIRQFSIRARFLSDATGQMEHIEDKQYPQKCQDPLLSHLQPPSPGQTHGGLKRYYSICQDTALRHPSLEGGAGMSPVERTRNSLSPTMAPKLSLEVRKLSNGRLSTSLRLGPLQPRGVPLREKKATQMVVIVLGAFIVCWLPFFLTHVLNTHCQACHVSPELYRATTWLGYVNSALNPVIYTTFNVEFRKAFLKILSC
T3 sequence (P14842 whole entry): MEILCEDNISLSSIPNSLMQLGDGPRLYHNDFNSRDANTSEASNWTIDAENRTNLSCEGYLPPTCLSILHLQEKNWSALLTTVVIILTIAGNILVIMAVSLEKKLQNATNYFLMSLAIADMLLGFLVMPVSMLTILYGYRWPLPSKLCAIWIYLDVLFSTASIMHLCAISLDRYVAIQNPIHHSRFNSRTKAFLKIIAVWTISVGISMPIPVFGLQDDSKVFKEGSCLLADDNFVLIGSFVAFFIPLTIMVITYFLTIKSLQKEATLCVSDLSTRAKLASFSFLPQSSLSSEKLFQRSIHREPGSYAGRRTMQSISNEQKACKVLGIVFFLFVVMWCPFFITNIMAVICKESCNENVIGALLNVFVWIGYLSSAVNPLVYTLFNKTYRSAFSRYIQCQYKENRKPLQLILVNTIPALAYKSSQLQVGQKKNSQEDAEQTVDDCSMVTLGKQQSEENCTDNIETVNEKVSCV
Description for Histamine H1 receptor: Half-maximal inhibition of [3H]pyrilamine binding to Histamine H1 receptor in rat frontal cortex homogenate

As to `CN1CCN([C@H]2Cn3cccc3Sc3ccc(Cl)cc32)CC1`, affinity on D(3) dopamine receptor [1] was put at a Ki of 1.85 nM.
Take `CN1CCN([C@H]2Cc3ccccc3Sc3ccc(Cl)cc32)CC1`: the Ki at D(1A) dopamine receptor [2] was 1.9 nM; at D(3) dopamine receptor [1] it was 0.4 nM.
For `OCCN1CCN(C2Cn3cccc3Sc3ccc(Br)cc32)CC1` (racemic), the Ki at D(1A) dopamine receptor [2] is 20 nM; on D(3) dopamine receptor [1], 10 nM; in [3], 23 nM.
On to `CN1CCCN(C2Cn3cccc3Sc3ccc(Cl)cc32)CC1` (racemic), for which the inhibition constant (Ki) is 53.7 nM in assay [4], 53 nM on D(1A) dopamine receptor [2], 58 nM on D(3) dopamine receptor [1] and 16 nM in assay [3].
On to `CCN1CCN(C2Cn3cccc3Sc3ccc(Cl)cc32)CC1` (racemic), for which the values for the Ki (on D(1A) dopamine receptor [2]; at D(3) dopamine receptor [1]; in [3]) were 18.2 nM, 4.5 nM and 5.8 nM, respectively.
On to `OCCN1CCN(C2Cn3cccc3Sc3ccc(F)cc32)CC1` (racemic), for which the Ki in assay [4] was 74.1 nM; in [5], 2.9 nM; at D(1A) dopamine receptor [2], 72 nM; at D(3) dopamine receptor [6] it was 13.2 nM; on D(3) dopamine receptor [7], 13 nM; in [8], 6300 nM. In addition, the Ki (on Histamine H1 receptor; in [3]) was 7.1 nM throughout.
With `OCCN1CCN(C2Cn3cccc3Sc3ccc(Cl)cc32)CC1` (racemic), the values for the Ki (on D(1A) dopamine receptor [2]; at D(3) dopamine receptor [1]; in [3]) were 27 nM, 3.6 nM and 8.8 nM, respectively.
Take `CN1CCN(C2Cn3cccc3Sc3ccc(Br)cc32)CC1` (racemic): the Ki on D(1A) dopamine receptor [2] is 14 nM; in assay [3], 12 nM.
As for `CCN1CCN(C2Cn3cccc3Sc3ccc(F)cc32)CC1` (racemic), the Ki is 0.4 nM in [5]; 31 nM on D(1A) dopamine receptor [2]; 18.2 nM at D(3) dopamine receptor [6]; 18 nM on D(3) dopamine receptor [7]; 2340 nM in assay [8]; 4.3 nM on Histamine H1 receptor. In assay [3], this compound displayed a Ki of 4.3 nM.
Regarding `CCN1CCN(C2Cn3cccc3Sc3ccc(Br)cc32)CC1` (racemic), the Ki at D(1A) dopamine receptor [2] was found to be 14 nM; at D(3) dopamine receptor [1], 7.4 nM; in assay [3], 23 nM.
On to `CN1CCN([C@@H]2Cn3cccc3Sc3ccccc32)CC1` (stereo in doubt; (+)-6a), for which the Ki in [5] turned out to be 18.8 nM; in assay [8] it was 2270 nM; on Histamine H1 receptor, 9.5 nM. The same compound returned an ED50 in the assay listed under Mus musculus [9] of 269 µmol/kg. The 50% effective dose (ED50) at […] stood at 2.8 µmol/kg in the assay filed under Mus musculus [10] and 5.2 µmol/kg in the assay listed under Mus musculus [11].
In [5], `CN1CCN([C@H]2Cn3cccc3Sc3ccc(F)cc32)CC1` (stereo in doubt; (+)-6b) gave a Ki of 12 nM.
For `CN1CCN([C@H]2Cn3cccc3Sc3ccc(F)cc32)CC1` (stereo in doubt; (-)-6b), the Ki was 4.5 nM in [5] and over 10000 nM in [8].
Compound `CSc1ccc2c(c1)C(N1CCN(C)CC1)Cc1ccccc1S2` (stereo unspecified) [METITEPINE] showed a Ki at D(1A) dopamine receptor [12] of 2 nM.
